Data as given in patent US9796709B2, “5-hydroxy-4-(trifluoromethyl)pyrazolopyridine derivative” (Daiichi Sankyo Company, Limited, priority 2013, dated 2017).

Legend:
[1] = target: T1, LCAT (Homo sapiens, UniProt P04180); test: LCAT activity measurement (in vitro), [14C]cholesterol esterification with HDL3 fraction; type: biochemical; conditions: HDL3 fraction from plasma of a healthy person as enzyme source and acceptor; 37° C., approximately 16 hours; relative to sample without test drug; read-out: EC50 of LCAT activation
T1 construct: The obtained fraction was dialyzed against phosphate-buffered saline (pH 7.4) and used as an enzyme source and an acceptor for LCAT; from tissue; host or cells: HDL3 fraction (1.125 < specific gravity < 1.210 g/mL) of plasma from a healthy person
T1 sequence (P04180 25-440): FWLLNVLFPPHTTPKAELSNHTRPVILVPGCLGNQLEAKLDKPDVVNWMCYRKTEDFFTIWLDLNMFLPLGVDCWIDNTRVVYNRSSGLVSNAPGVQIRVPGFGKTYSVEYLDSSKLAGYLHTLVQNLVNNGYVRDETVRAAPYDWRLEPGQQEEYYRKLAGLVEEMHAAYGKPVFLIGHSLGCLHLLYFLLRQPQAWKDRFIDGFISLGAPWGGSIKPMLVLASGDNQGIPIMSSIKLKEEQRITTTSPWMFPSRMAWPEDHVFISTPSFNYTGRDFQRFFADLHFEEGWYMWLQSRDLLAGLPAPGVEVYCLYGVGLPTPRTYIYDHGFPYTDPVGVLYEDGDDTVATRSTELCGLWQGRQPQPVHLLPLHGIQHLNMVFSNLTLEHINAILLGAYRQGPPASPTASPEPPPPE
Method: A fraction composed of HDL3 (1.125 <specific gravity <1.210 g/mL) was obtained from the plasma of a healthy person by density gradient centrifugation. The obtained fraction was dialyzed against phosphate-buffered saline (pH 7.4) and used as an enzyme source and an acceptor for LCAT. Each test drug was prepared by dissolution in dimethyl sulfoxide. [^14C]Cholesterol containing DTNB (Ellman's reagent, final concentration: 0.5 mM), mercaptoethanol (final concentration: 12.5 mM), and 0.6% bovine serum albumin was added to phosphate-buffered saline (pH 7.4) containing 1 mg/mL HDL3, and the test drug was further added thereto at varying concentrations to adjust the whole amount to 80 μL. This mixture was incubated at 37° C. for approximately 16 hours. Then, a mixed solution of hexane and isopropanol (mixing ratio=3:2) was added thereto to stop the reaction. After stirring, the hexane layer was collected, and this layer was evaporated to dryness. A chloroform solution (concentration: 10 mg/mL) was added thereto, and the mixture was spotted onto a thin-layer silica gel plate and developed using a mixed solution of hexane, diethyl ether, and ethyl acetate (mixing ratio=85:15:2). The radioactivity of a portion corresponding to cholesterol oleate was measured using an imaging analyzer BAS-2500 (manufactured by Fujifilm Corp.). A sample non-supplemented with the test drug was similarly treated and assayed. The EC50 value of LCAT activation was calculated according to the expression given below relative to LCAT activity in the sample non-supplemented with the test drug.
[formula] • wherein X represents the logarithm of the concentration of the test drug; • Y represents the responsiveness (LCAT activity) of the test drug; • Top represents the maximum value (maximum plateau); • Bottom represents the minimum value (minimum plateau); and • EC50 represents the 50% effective concentration.

[2] = system: cynomolgus monkey; test: Drug efficacy test in cynomolgus monkeys (plasma HDL cholesterol); type: in vivo; conditions: Macaca fascicularis, oral, single dose of 10 mg/kg, from AUC before administration and 24 hours after administration, read-out: Rate of increase in HDL level after administration of single dose
Method: Each test drug was dissolved in a propylene glycol (Sigma-Aldrich Corp.)-Tween 80 (Sigma-Aldrich Corp.) mixed solution [4/1 (v/v)] or a 0.5% (w/v) methylcellulose aqueous solution, and the solution was orally administered to a cynomolgus monkey for 1 or 7 days. At day 1 or 7 of the administration period, blood was collected before administration and after administration, and plasma was obtained. The content of cholesterol in the plasma was measured using a commercially available assay kit (Cholesterol-E Wako, Wako Pure Chemical Industries, Ltd.). The lipoprotein profile was analyzed by HPLC (column: LipopropakXL, manufactured by Tosoh Corp.). The contents of HDL cholesterol and non-HDL cholesterol were calculated according to the following calculation expression: Content of HDL cholesterol=Content of cholesterol in the plasma×(Peak area of HDL cholesterol/Total sum of peaks) Content of non-HDL cholesterol=Content of cholesterol in the plasma×(Peak area of non-HDL cholesterol/Total sum of peaks)

SMILES	EC50 [1] [nM]	change in vivo at 10 mg/kg [2] [%]
N#Cc1cnc(N2CCC(c3n[nH]c4c3[C@@H](C(F)(F)F)[C@@H](O)C(=O)N4)CC2)cc1C(F)(F)F (single isomer, unassigned) [Example 20, (+)-6-{4-[cis-5-Hydroxy-6-oxo-4-(trifluoromethyl)-4,5,6,7-tetrahydro-1H-pyrazolo[3,4-b]pyridin-3-yl]piperidin-1-yl}-4-(trifluoromethyl)pyridine-3-carbonitrile]	51	454
O=C1Nc2[nH]nc(C3CCN(c4ccc(Cl)cn4)CC3)c2[C@@H](C(F)(F)F)[C@H]1O (single isomer, unassigned) [Example 22, (+)-cis-3-[1-(5-Chloropyridin-2-yl)piperidin-4-yl]-5-hydroxy-4-(trifluoromethyl)-1,4,5,7-tetrahydro-6H-pyrazolo[3,4-b]pyridin-6-one]	32	581
O=C1Nc2[nH]nc(C3CCN(c4nnc(C(F)(F)F)s4)CC3)c2[C@@H](C(F)(F)F)[C@H]1O (single isomer, unassigned) [Example 26, (+)-cis-5-Hydroxy-4-(trifluoromethyl)-3-{1-[5-(trifluoromethyl)-1,3,4-thiadiazol-2-yl]piperidin-4-yl}-1,4,5,7-tetrahydro-6H-pyrazolo[3,4-b]pyridin-6-one]	65	
Cc1cc(N2CCC(c3n[nH]c4c3[C@@H](C(F)(F)F)[C@@H](O)C(=O)N4)CC2)cnc1C#N (single isomer, unassigned) [Example 27, (+)-5-{4-[cis-5-Hydroxy-6-oxo-4-(trifluoromethyl)-4,5,6,7-tetrahydro-1H-pyrazolo[3,4-b]pyridin-3-yl]piperidin-1-yl}-3-methylpyridine-2-carbonitrile]	37	
N#Cc1cnc(N2CCC(c3n[nH]c4c3[C@@H](C(F)(F)F)[C@@H](O)C(=O)N4)CC2)cn1 (single isomer, unassigned) [Example 28, (+)-5-{4-[cis-5-Hydroxy-6-oxo-4-(trifluoromethyl)-4,5,6,7-tetrahydro-1H-pyrazolo[3,4-b]pyridin-3-yl]piperidin-1-yl}pyrazine-2-carbonitrile]	160	
N#Cc1cncc(N2CCC(c3n[nH]c4c3[C@@H](C(F)(F)F)[C@@H](O)C(=O)N4)CC2)c1 (single isomer, unassigned) [Example 31, (+)-5-{4-[cis-5-Hydroxy-6-oxo-4-(trifluoromethyl)-4,5,6,7-tetrahydro-1H-pyrazolo[3,4-b]pyridin-3-yl]piperidin-1-yl}pyridine-3-carbonitrile]	34	
CC(C)Oc1ccc(N2CCC(c3n[nH]c4c3[C@@H](C(F)(F)F)[C@@H](O)C(=O)N4)CC2)nc1 (single isomer, unassigned) [Example 36, (+)-cis-5-Hydroxy-3-[1-(5-isopropoxypyridin-2-yl)piperidin-4-yl]-4-(trifluoromethyl)-1,4,5,7-tetrahydro-6H-pyrazolo[3,4-b]pyridin-6-one]	41	
O=C1Nc2[nH]nc(C3CCN(c4cncc(C(F)(F)F)c4)CC3)c2[C@@H](C(F)(F)F)[C@H]1O (single isomer, unassigned) [Example 38, (+)-cis-5-Hydroxy-4-(trifluoromethyl)-3-{1-[5-(trifluoromethyl)pyridin-3-yl]piperidin-4-yl}-1,4,5,7-tetrahydro-6H-pyrazolo[3,4-b]pyridin-6-one]	24	
CC(C)Oc1ccc(N2CCC(c3n[nH]c4c3[C@@H](C(F)(F)F)[C@@H](O)C(=O)N4)CC2)cn1 (single isomer, unassigned) [Example 39, cis-5-hydroxy-3-[1-(6-isopropoxypyridin-3-yl)piperidin-4-yl]-4-(trifluoromethyl)-1,4,5,7-tetrahydro-6H-pyrazolo[3,4-b]pyridin-6-one]	92	
O=C1Nc2[nH]nc(C3CCN(c4cnc(C5CC5)nc4)CC3)c2[C@@H](C(F)(F)F)[C@H]1O (single isomer, unassigned) [Example 40, cis-3-[1-(2-cyclopropylpyrimidin-5-yl)piperidin-4-yl]-5-hydroxy-4-(trifluoromethyl)-1,4,5,7-tetrahydro-6H-pyrazolo[3,4-b]pyridin-6-one]	70	
CC(C)Oc1ccc(N2CCC(c3n[nH]c4c3[C@@H](C(F)(F)F)[C@@H](O)C(=O)N4)CC2)nn1 (single isomer, unassigned) [Example 41, (+)-cis-5-Hydroxy-3-[1-(6-isopropoxypyridazin-3-yl)piperidin-4-yl]-4-(trifluoromethyl)-1,4,5,7-tetrahydro-6H-pyrazolo[3,4-b]pyridin-6-one]	35	

The next molecules have a lower EC50 [1] than those just listed; values first:

EC50 [1] [nM]	SMILES	change in vivo at 10 mg/kg [2] [%]
13	O=C1Nc2[nH]nc(C3CCN(c4ccc(C(F)(F)F)cn4)CC3)c2[C@@H](C(F)(F)F)[C@H]1O (single isomer, unassigned) [Example 3, (+)-cis-5-Hydroxy-4-(trifluoromethyl)-3-{1-[5-(trifluoromethyl)pyridin-2-yl]piperidin-4-yl}-1,4,5,7-tetrahydro-6H-pyrazolo[3,4-b]pyridin-6-one]	658
9	O=C1Nc2[nH]nc(C3CCN(c4cnc(C(F)(F)F)cn4)CC3)c2[C@@H](C(F)(F)F)[C@H]1O (single isomer, unassigned) [Example 18, (+)-cis-5-Hydroxy-4-(trifluoromethyl)-3-{1-[5-(trifluoromethyl)pyrazin-2-yl]piperidin-4-yl}-1,4,5,7-tetrahydro-6H-pyrazolo[3,4-b]pyridin-6-one]	644
18	O=C1Nc2[nH]nc(C3CCN(c4cnc(C(F)(F)F)nc4)CC3)c2[C@@H](C(F)(F)F)[C@H]1O (single isomer, unassigned) [Example 21, (+)-cis-5-Hydroxy-4-(trifluoromethyl)-3-{1-[2-(trifluoromethyl)pyrimidin-5-yl]piperidin-4-yl}-1,4,5,7-tetrahydro-6H-pyrazolo[3,4-b]pyridin-6-one]	483
11	O=C1Nc2[nH]nc(C3CCN(c4ccc(-c5ccccc5)nn4)CC3)c2[C@@H](C(F)(F)F)[C@H]1O (single isomer, unassigned) [Example 29, cis-5-hydroxy-3-[1-(6-phenylpyridazin-3-yl)piperidin-4-yl]-4-(trifluoromethyl)-1,4,5,7-tetrahydro-6H-pyrazolo[3,4-b]pyridin-6-one]	
7	O=C(OCc1ccccc1)c1cc(N2CCC(c3n[nH]c4c3[C@@H](C(F)(F)F)[C@@H](O)C(=O)N4)CC2)ncc1C(F)(F)F (single isomer, unassigned) [Example 32, Benzyl (+)-2-{4-[cis-5-hydroxy-6-oxo-4-(trifluoromethyl)-4,5,6,7-tetrahydro-1H-pyrazolo[3,4-b]pyridin-3-yl]piperidin-1-yl}-5-(trifluoromethyl)pyridine-4-carboxylate]	
22	O=C1Nc2[nH]nc(C3CCN(c4ccc(C(F)(F)F)cn4)CC3)c2C(O)(C(F)(F)F)C1O (stereo not shown) [Example 4, 4,5-Dihydroxy-4-(trifluoromethyl)-3-{1-[5-(trifluoromethyl)pyridin-2-yl]piperidin-4-yl}-1,4,5,7-tetrahydro-6H-pyrazolo[3,4-b]pyridin-6-one]	
